Where no end group is shown, it is not given here.
Key:
[1] = tested on: rat intact cardiomyocytes; assay: Ca2+ transients in intact cardiomyocytes; type: cell-based; details: H2O2 50 μmol/L, dantrolene 1 μmol/L, 1 Hz
Procedure: Intact cardiomyocytes were loaded with Fluo-4 AM (5 μmol/L, Molecular Probes) for 15 min in NT solution (in mM): NaCl 140, KCl 4, MgCl2 1, CaCl2 2, glucose 10, HEPES 5, pH 7.4. Fluo-4 AM was excited at 488 nm and emission was recorded using a 500-530 nm bandpass filter. Ca^2+sparks were recorded after field stimulation at 1 Hz, and caffeine (10mmol/L) was rapidly perfused for assessing the SR Ca^2+content. Both Ca^2+sparks and SR Ca^2+content were recorded by using a laser scanning confocal microscope (RADIANCE2000™ MP, Bio-Rad, UK). Data were analyzed using SparkMaster, an automated analysis program that allows rapid and reliable spark analysis (Picht et al., J. Am J Physiol Cell Physiol. 2007;293:C1073-C1081). Spontaneous Ca^2+waves were recorded using a BZ9000 fluorescence digital microscope (Keyence, Japan), after 10 sec from field electric stimulation at 1,2,3,4 and 5 Hz, as described previously (Fukuda et al., Biochem Biophys Res Commun. 2014;448:1-7).
Oxidation induced by hydrogen peroxide (H2O2) is expected to activate SR Ca^2+ leak through RyR2 at diastolic [Ca]i (Wagner et al., Circ Res. 2011; 108:555-65; Yan et al., Cardiovasc Res. 2008; 77:432-41). We used line-scan images to measure the effects of 50 μM/L H2O2 on Ca^2+ spark frequency (CaSpF) and SR Ca^2+ content (evaluated via rapid caffeine application) in intact cardiomyocytes after 1 Hz electric field stimulation (FIG. 25). […] Thus H2O2 may enhance diastolic RyR2 channel opening. […] So CaSpF normalized to SR Ca^2+ content, was significant increase by H2O2 treatment of myocytes (FIG. 25C).

[2] = tested on: intracellular reactive oxygen species (ROS); assay: Intracellular ROS by H2DCFDA fluorescence; type: cell-based, rat; details: 50 μmol/L H2O2, with or without dantrolene pretreatment
Procedure: (§1) Intracellular reactive oxygen species (ROS) formation was measured in rat cardiac myocytes using a fluorescent probe, 5-(and -6)-chloromethyl-2′,7′-dichlorodihydrofluoroscein diacetate (H2DCFDA, 10 μmol/L) (Terentyev et al., Circ Res. 2008; 103:1466-1472). This assay is widely used as a reliable method for the measurement of intracellular ROS such as hydrogen peroxide, hydroxyl radicals, and hydroperoxide. The H2DCFDA dye was excited with the 488 nm and emission was collected at 500-530 nm. The content of free thiols in RyR2 was determined based on the monobromobimane (mBB, Calbiochem) fluorescence intensity, as previously described (Terentyev et al., Circ Res. 2008; 103:1466-1472; Ho et al., J Physiol. 2011; 19:4697-4708). In brief, myocytes were incubated with mBB for 1 hr. Myocytes were then lysed in lysis buffer and loaded on 6% SDS-PAGE gels. The fluorescence emission intensity of the RyR2-bound mBB was measured at 482 nm by exciting at 382 nm. mBB fluorescence was normalized to the RyR2 amount, which was determined using quantitative densitometry of Coomassie Blue-stained gels.
(§2) To monitor intracellular ROS level, we used H2DCFDA (10 μmol/L). […] To assess whether dantrolene can attenuate the extent of RyR2 thiol modification in H2O2-treated myocytes, we used a monobromobimane (mBB) fluorescence labeling assay.

[3] = tested on: RyR2; assay: RyR2 free thiol content by monobromobimane (mBB) fluorescence; type: cell-based, rat; details: 50 μmol/L H2O2, with or without dantrolene pretreatment
Procedure: as §1, §2

[4] = molecular target: RyR2 (Rattus norvegicus, UniProt B0LPN4); assay: Fluorescent CaM binding at the Z-line and at RyR2 (FKBP12.6-CaM FRET) in permeabilized myocytes; set-up: These fluorescent proteins were added to saponin-permeabilized myocytes with or without pre-equilibration with saturating DPc10 concentration; endogenous in cells; host or cells: saponin-permeabilized rat ventricular myocytes
Procedure: These fluorescent proteins were added to saponin-permeabilized myocytes with or without pre-equilibration with saturating DPc10 concentration. […] We also did this with high [CaM] (500 nmol/L) that saturates RyR2 with CaM under control conditions (without DPc10; FIG. 17C). […] To test whether DPc10 and CaM bind at the same or nearby RyR2 sites, we measured FRET between CaM and DPc10.
CaM also binds to RyR2 and reduces RyR2 open probability, and works as a regulatory protein for RyR2 channel gating (Yamaguchi et al., J Biol Chem. 2003; 278:23480-23486; Balshaw et al., J Biol Chem. 2001; 276:20144-20153; Yang et al., Circ Res. 2014; 114:295-306); Yamaguchi et al., J Clin Invest. 2007; 117:1344-1353). We measured the effect of H2O2 on CaM-RyR2 binding affinity using F-CaM as in our previous reports (Yang et al., Circ Res. 2014; 114:295-306; Cornea et al., Proc Natl Acad Sci USA. 2009; 106:6128-6133).
(50 μmol/L) in media containing 50 μmol/L H2O2 (the same concentration used in myocyte pre-incubation experiments). This allowed F-CaM oxidation (and call this F-CaM^Ox). This was then diluted 2500-fold to 20 nmol/L F-CaM^Ox and no H2O2 was present in the myocyte bath.
As a further test of whether RyR2 oxidation alone inhibits subsequent CaM affinity, we removed H2O2 from the myocytes by repeated washing, prior to the addition of F-CaM.

Sequence of RyR2 (Rattus norvegicus, UniProt B0LPN4) (B0LPN4 whole entry): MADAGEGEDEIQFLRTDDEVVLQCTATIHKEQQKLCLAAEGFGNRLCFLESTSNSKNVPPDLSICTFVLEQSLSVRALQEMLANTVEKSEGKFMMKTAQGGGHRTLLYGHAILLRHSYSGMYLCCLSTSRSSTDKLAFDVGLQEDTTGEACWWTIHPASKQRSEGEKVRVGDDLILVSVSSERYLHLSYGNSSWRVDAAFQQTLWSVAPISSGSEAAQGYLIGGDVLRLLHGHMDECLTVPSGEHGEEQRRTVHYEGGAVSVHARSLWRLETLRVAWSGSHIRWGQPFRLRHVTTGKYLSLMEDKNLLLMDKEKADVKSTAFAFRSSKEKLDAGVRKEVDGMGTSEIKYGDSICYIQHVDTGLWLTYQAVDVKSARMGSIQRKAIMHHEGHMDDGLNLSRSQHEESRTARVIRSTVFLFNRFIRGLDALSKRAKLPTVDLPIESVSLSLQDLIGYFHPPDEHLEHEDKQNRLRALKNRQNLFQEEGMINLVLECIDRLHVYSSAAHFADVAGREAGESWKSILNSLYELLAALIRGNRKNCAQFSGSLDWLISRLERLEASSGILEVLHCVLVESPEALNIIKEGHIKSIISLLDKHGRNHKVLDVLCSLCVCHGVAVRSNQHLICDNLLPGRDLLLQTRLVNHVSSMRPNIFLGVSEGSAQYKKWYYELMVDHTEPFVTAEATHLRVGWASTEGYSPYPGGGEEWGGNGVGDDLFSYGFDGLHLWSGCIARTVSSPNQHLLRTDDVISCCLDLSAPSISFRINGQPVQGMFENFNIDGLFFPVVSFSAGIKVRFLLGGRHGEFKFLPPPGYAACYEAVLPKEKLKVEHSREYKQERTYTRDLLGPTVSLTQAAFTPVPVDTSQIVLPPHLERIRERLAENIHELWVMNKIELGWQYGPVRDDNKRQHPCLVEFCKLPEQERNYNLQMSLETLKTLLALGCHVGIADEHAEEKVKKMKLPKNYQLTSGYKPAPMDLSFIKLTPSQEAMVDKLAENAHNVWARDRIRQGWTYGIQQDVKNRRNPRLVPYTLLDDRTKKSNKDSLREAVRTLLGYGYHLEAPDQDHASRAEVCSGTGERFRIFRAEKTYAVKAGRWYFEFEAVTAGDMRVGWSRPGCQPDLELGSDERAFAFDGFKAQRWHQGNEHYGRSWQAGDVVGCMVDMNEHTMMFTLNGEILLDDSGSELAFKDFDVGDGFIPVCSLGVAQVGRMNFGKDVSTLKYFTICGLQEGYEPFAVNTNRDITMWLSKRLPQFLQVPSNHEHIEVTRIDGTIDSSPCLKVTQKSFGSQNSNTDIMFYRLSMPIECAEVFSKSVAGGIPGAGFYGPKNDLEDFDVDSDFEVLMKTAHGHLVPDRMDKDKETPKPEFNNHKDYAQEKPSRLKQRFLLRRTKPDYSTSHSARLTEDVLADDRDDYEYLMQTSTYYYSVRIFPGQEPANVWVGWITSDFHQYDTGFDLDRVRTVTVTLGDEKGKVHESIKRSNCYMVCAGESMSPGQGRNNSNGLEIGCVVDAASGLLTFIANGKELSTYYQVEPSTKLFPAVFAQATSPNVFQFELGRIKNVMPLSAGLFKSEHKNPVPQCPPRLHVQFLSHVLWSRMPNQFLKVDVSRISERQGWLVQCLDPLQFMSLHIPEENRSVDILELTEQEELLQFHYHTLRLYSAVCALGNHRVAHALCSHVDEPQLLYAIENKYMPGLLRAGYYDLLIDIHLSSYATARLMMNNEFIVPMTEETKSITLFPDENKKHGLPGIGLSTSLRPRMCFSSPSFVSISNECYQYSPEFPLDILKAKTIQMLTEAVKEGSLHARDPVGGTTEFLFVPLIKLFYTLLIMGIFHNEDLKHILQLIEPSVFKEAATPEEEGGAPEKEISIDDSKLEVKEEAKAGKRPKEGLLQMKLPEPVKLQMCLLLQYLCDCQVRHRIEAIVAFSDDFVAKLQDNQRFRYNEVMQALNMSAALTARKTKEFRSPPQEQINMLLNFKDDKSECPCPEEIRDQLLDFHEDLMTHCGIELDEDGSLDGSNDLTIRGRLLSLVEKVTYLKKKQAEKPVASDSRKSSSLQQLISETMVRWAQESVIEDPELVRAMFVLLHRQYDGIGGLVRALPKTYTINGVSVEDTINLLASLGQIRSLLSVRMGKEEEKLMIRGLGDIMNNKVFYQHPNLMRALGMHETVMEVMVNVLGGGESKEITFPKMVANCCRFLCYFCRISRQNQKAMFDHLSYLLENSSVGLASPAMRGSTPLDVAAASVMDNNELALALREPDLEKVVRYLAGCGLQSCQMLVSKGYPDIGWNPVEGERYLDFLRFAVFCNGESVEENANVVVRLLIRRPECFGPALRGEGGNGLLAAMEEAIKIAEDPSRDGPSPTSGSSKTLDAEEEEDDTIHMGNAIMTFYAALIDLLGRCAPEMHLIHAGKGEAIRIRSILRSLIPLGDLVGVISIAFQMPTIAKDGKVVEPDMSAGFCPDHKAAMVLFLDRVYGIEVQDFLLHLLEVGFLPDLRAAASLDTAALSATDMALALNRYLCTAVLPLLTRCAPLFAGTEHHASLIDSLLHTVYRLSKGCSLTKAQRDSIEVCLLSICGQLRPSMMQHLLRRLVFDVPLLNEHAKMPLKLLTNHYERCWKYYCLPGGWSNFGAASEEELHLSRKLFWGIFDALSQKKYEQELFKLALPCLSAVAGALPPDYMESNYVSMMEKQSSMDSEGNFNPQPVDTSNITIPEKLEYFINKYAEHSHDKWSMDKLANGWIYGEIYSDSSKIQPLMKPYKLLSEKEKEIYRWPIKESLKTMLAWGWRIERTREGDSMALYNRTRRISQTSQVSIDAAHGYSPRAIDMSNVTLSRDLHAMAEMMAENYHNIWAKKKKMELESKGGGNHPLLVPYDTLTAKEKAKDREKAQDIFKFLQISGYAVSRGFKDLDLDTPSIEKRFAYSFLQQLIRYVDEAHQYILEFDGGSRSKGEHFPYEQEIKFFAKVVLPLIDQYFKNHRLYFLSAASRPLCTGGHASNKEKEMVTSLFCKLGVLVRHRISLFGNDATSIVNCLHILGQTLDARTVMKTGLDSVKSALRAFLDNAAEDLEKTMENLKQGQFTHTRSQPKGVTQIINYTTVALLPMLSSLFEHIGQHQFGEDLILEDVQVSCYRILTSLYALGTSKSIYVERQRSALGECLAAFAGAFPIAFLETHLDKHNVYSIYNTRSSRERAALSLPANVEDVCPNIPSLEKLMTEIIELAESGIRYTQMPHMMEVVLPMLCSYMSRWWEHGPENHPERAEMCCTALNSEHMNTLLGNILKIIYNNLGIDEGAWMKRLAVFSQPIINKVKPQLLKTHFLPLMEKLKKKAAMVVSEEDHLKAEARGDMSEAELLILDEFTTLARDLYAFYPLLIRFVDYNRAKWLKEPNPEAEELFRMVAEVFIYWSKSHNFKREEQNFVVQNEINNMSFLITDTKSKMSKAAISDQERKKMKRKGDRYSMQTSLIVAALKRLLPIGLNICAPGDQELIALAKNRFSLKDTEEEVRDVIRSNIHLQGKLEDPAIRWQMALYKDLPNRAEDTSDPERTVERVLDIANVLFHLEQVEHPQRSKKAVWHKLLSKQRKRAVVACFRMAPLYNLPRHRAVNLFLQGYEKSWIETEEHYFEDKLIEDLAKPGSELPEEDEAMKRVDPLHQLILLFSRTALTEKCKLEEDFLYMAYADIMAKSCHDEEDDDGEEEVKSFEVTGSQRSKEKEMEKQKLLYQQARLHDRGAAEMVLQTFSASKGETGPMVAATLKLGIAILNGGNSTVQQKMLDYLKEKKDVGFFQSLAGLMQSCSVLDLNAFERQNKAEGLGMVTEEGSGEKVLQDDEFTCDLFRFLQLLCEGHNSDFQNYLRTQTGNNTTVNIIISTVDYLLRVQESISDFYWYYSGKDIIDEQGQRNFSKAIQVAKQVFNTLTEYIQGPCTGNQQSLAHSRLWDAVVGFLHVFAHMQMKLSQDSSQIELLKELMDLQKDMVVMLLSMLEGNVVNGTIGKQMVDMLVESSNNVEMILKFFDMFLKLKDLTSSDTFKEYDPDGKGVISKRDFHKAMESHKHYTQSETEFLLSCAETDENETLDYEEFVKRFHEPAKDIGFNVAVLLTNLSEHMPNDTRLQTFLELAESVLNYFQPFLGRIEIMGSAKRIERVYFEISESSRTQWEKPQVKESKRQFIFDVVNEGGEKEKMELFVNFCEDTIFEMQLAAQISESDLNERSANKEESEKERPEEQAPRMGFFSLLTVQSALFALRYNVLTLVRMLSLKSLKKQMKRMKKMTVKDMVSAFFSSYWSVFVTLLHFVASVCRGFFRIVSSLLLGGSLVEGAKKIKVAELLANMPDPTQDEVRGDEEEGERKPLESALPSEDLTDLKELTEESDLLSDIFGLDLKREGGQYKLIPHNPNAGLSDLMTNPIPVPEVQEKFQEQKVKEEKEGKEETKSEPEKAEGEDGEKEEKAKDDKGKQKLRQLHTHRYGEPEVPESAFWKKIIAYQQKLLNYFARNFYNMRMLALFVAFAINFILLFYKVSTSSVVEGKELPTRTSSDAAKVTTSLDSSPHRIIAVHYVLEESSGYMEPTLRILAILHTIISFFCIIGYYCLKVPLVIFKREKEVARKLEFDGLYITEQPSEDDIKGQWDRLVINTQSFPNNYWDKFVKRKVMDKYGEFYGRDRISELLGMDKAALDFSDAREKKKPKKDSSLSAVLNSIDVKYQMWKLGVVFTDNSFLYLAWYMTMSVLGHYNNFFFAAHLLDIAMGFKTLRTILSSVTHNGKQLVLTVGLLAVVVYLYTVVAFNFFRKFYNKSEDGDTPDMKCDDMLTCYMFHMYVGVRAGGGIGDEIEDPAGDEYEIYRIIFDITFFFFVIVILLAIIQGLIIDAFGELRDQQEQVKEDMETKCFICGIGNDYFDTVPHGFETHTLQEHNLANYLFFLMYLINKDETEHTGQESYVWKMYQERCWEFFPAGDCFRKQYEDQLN

restoration of F-CaM binding in H2O2-treated myocytes ([4]; dantrolene 1 μmol/L, AIP 1 μmol/L) | effect on CaM-RyR2 affinity under control conditions ([4]; no H2O2) | reduction of F-CaM binding, myocytes pre-treated with H2O2 ([4]; 50 μmol/L H2O2 not removed, F-CaM 20 nmol/L) [%] | reduction of F-CaM binding at the Z-line ([4]; 50 μmol/L H2O2 removed by washing before F-CaM) [%] | effect on F-CaM binding at the Z-line ([4]; 10 and 50 μmol/L H2O2 pretreatment, F-CaM 20 nmol/L) | reduction of RyR2 A-CaM binding ([4]; subsaturating A-CaM, 50 μM H2O2) [%] | Compound | Tau [Ca]i decline [1] [s] | Δ [Ca]i twitch (ΔF/F0) [1] | intracellular ROS level [2] | content of free thiols on RyR2 / RyR2 oxidation level [3] | effect on CaM binding at the RyR2 and at the Z-line ([4]; 20 nmol/L CaM, DPc10 pretreatment) | effect on CaM binding at the RyR2 (FRET) and at the Z-lines (total) ([4]; 500 nmol/L AF568-34-CaM, DPc10-treated myocytes)
partially restore | Neither AIP nor dantrolene alter |  |  |  |  | O=C1CN(/N=C/c2ccc(-c3ccc([N+](=O)[O-])cc3)o2)C(O)=N1 [dantrolene] | 0.31 ± 0.01 | 2.35 ± 0.16 ΔF/F0 | does not alter | did not attenuate |  | 
 |  | 50 | 32 | reduced | ~50 | OO [H2O2, hydrogen peroxide] | 0.32 ± 0.01 | 2.56 ± 0.19 ΔF/F0 | increased | significantly decreased |  | 
 |  |  |  |  |  | GFCPDHKAAMVLFLDRVYGIEVQDFLLHLLEVGFLP [DPc10] |  |  |  |  | significantly reduced | reduced

Reference: patent publication US10281476B2, “Methods to identify modulators of RyR calcium channels” (REGENTS OF THE UNIVERSITY OF MINNESOTA, priority 2013, dated 2019)
